Test [1] concerns the target T1, AMPK α1-kinase domain (α1-KD) (Homo sapiens, UniProt Q13131).
T1 construct: AMPK α1-kinase domain (α1-KD; residues 18–293); 6X-His (N); made in house; host or cells: E. coli BL21-CodonPlus (DE3)-RIPL (pET28a)
Description: Phosphatase (PP2Aα) sensitivity, pThr172/174 dephosphorylation. The format is biochemical. The note with it: PP2Aα concentration for half-maximal dephosphorylation, absence of activator, read-out: PP2Aα sensitivity dEC50. Here is the method: (§1) Test compound was previously diluted in half-log increments, starting at 40 μM in 100% DMSO, diluted 10-fold in assay buffer and dispensed into a microtitre plate. After 15 min at room temperature, phosphatase was added to the mixture and the reaction was allowed to proceed for 60 min at room temperature. Reactions were quenched by the addition of okadaic acid, and transferred to PVDF membrane using the slot-blot apparatus and subjected to immunoblotting. Phosphatase sensitivity was similarly assessed by subjecting pAMPK to a phosphatase (PP2Aα) treatment using various concentrations and incubation times. The concentration of phosphatase was expressed as nmol of PP2Aα per minute per nmol of pAMPK in the reaction.
(§2) The membrane was blocked with Western Blot Blocking Buffer Reagent (Li-Cor) for 3–4 h at room temperature. The blot was probed using a rabbit α-pThr^172/174-specific antibody (Cell Signaling 40H9) at 1:500 dilution for 2 h and washed three times using 1 × PBS/0.1% Tween 20 (42°C pre-warmed wash buffer). Following the wash step, goat anti-rabbit 800CW (Rockland) at 1:10000 dilution was used as a secondary antibody. Blots were visualized using the Li-Cor Odyssey infrared imaging system and signal quantification was performed using the Odyssey software. The pEC50 values (estimated concentration of activator required for half-maximal protection of pThr^172/174 from PP2α) were calculated using GraphPad Prism software.
(§3) We then examined the sensitivity of phospho-α-Thr^172/174 (pThr^172/174) for dephosphorylation by phosphatase (PP2Aα) in the absence of allosteric modulators. The extent of dephosphorylation was measured using an antibody specific to α-pThr^172/174 as described in ‘Experimental’ section. […] The presence of the regulatory subunits (β and γ) leads to increased protection of pAMPK from dephosphorylation compared with the kinase domains alone (Figure 6). […] The dEC50 values for α2-containing isoforms were 40, 57 and 41 nM for α2β1γ1, α2β2γ1 and α2β2γ3 respectively; 13- to 18-fold right-shifted compared with that for isolated α2-kinase domain (Figure 6).
(§4) Figure 6 Phosphatase (PP2Aα) sensitivity of AMPK isoforms Effect of phosphatase (PP2Aα) on pThr^172/174 dephosphorylation of AMPK isoforms in the absence of activators is shown. Data are mean (n=2), and curves were generated using best-fit values.

The target in test [2] is T2, AMPK α1β2γ3 (Homo sapiens, UniProt O43741+Q13131+Q9UGI9).
T2 construct: Recombinant full-length AMPK heterotrimeric complexes α1β1γ1, α1β2γ1, α1β2γ3, α2β1γ1, α2β2γ1 and α2β2γ3 were cloned; 6X-His (N); made in house; host or cells: E. coli BL21-CodonPlus (DE3)-RIPL
T2 sequence (Q13131 whole entry): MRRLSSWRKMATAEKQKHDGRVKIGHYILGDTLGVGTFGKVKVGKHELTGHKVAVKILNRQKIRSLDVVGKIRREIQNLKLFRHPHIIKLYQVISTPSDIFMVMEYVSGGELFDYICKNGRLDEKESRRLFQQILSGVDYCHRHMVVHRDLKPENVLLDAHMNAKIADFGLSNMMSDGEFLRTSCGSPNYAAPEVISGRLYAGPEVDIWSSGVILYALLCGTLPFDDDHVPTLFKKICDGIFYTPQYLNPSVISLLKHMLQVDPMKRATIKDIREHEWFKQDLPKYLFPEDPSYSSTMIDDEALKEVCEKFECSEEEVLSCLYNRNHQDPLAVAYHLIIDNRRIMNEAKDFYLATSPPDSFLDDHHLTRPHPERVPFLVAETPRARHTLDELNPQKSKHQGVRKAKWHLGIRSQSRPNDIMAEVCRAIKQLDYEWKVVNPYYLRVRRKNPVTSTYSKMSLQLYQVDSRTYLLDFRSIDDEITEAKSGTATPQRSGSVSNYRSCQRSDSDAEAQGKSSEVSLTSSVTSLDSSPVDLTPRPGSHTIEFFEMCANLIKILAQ
T2 sequence (O43741 whole entry): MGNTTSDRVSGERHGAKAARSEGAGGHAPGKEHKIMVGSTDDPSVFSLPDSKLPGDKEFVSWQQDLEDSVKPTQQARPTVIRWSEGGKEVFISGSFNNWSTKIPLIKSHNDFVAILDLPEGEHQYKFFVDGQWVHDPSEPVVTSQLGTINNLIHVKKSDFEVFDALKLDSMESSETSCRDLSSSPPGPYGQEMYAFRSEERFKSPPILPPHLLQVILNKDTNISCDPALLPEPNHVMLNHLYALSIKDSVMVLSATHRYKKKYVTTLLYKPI
T2 sequence (Q9UGI9 whole entry): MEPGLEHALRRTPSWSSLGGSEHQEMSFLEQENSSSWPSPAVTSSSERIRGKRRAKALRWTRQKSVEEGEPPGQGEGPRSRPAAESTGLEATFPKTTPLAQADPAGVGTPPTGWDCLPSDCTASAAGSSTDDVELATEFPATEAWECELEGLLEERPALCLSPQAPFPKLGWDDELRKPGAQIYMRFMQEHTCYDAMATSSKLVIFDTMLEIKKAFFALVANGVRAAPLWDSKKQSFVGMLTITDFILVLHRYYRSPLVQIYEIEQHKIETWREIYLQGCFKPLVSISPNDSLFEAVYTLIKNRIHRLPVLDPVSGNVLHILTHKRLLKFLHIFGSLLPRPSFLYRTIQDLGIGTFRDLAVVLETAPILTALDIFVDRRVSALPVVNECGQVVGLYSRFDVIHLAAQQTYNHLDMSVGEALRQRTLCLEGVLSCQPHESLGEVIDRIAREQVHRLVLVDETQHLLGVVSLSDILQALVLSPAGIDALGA
The description is as above. It is filed as biochemical. The note with it: PP2Aα concentration for half-maximal dephosphorylation, absence of activator, read-out: PP2Aα sensitivity dEC50. How it is done:
as §1, §2, §3, §4

Test [3] concerns the target T3, AMPK α2-kinase domain (α2-KD) (Homo sapiens, UniProt P54646).
T3 construct: α2-kinase domain (α2-KD; residues 7–282); 6X-His (N); made in house; host or cells: E. coli BL21-CodonPlus (DE3)-RIPL (pET28a)
The description is as above. The format is biochemical. The following applies: PP2Aα concentration for half-maximal dephosphorylation, absence of activator, read-out: PP2Aα sensitivity dEC50. How it is done:
as §1, §2, §3, §4

The target in test [4] is T4, AMPK α2β1γ1 (Homo sapiens, UniProt P54619+P54646+Q9Y478).
T4 construct: Recombinant full-length AMPK heterotrimeric complexes α1β1γ1, α1β2γ1, α1β2γ3, α2β1γ1, α2β2γ1 and α2β2γ3 were cloned; 6X-His (N); made in house; host or cells: E. coli BL21-CodonPlus (DE3)-RIPL
T4 sequence (P54646 whole entry): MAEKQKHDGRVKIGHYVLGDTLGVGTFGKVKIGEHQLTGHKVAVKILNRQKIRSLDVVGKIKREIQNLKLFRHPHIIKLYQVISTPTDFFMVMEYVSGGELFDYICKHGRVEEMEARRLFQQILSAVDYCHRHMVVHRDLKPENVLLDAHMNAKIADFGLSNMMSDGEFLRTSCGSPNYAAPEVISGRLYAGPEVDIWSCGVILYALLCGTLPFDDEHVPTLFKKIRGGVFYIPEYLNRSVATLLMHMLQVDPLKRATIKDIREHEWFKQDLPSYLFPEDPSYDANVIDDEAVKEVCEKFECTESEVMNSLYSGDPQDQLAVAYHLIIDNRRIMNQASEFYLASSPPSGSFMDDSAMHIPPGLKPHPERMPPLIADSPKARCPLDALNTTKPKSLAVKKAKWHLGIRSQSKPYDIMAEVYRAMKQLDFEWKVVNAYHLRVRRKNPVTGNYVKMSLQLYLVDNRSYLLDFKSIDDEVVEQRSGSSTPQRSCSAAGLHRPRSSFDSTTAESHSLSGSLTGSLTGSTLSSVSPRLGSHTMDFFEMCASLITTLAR
T4 sequence (Q9Y478 whole entry): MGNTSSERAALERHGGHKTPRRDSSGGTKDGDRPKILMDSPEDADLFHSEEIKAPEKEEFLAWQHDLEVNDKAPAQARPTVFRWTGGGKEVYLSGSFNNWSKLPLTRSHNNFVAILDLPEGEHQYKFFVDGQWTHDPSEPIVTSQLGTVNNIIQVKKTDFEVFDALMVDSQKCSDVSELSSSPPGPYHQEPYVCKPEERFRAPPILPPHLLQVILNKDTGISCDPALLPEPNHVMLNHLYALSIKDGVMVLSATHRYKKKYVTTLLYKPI
T4 sequence (P54619 whole entry): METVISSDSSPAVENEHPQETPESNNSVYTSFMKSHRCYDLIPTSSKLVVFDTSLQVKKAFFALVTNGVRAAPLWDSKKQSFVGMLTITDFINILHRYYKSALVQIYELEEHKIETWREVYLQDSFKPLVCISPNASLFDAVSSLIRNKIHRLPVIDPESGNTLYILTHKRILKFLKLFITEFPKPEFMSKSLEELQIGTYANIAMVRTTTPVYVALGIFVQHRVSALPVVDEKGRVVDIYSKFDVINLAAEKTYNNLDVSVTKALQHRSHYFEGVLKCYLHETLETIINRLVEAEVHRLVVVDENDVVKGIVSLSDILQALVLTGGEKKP
Described as above. The format is biochemical. The following applies: PP2Aα concentration for half-maximal dephosphorylation, absence of activator, read-out: PP2Aα sensitivity dEC50. Here is the method: as §1, §2, §3, §4

For test [5], the target named is T5, AMPK α2β2γ1 (Homo sapiens, UniProt O43741+P54619+P54646).
T5 construct: Recombinant full-length AMPK heterotrimeric complexes α1β1γ1, α1β2γ1, α1β2γ3, α2β1γ1, α2β2γ1 and α2β2γ3 were cloned; 6X-His (N); made in house; host or cells: E. coli BL21-CodonPlus (DE3)-RIPL
T5 sequence (P54646 whole entry): as the sequence (P54646 whole entry) above
T5 sequence (O43741 whole entry): as the sequence (O43741 whole entry) above
T5 sequence (P54619 whole entry): as the sequence (P54619 whole entry) above
The description is as above. The note with it: PP2Aα concentration for half-maximal dephosphorylation, absence of activator, read-out: PP2Aα sensitivity dEC50. The format is biochemical. How it is done:
as §1, §2, §3, §4

The target of test [6] is T6, AMPK α2β2γ3 (Homo sapiens, UniProt O43741+P54646+Q9UGI9).
T6 construct: Recombinant full-length AMPK heterotrimeric complexes α1β1γ1, α1β2γ1, α1β2γ3, α2β1γ1, α2β2γ1 and α2β2γ3 were cloned; 6X-His (N); made in house; host or cells: E. coli BL21-CodonPlus (DE3)-RIPL
T6 sequence (P54646 whole entry): as the sequence (P54646 whole entry) above
T6 sequence (O43741 whole entry): as the sequence (O43741 whole entry) above
T6 sequence (Q9UGI9 whole entry): as the sequence (Q9UGI9 whole entry) above
The description is as above. The note with it: PP2Aα concentration for half-maximal dephosphorylation, absence of activator, read-out: PP2Aα sensitivity dEC50. The format is biochemical. How it is done: as §1, §2, §3, §4

Test [7] deals with T7, BAP-tagged AMPK α1β1γ1 (Homo sapiens, UniProt P54619+Q13131+Q9Y478).
T7 construct: Recombinant full-length AMPK heterotrimeric complexes α1β1γ1, α1β2γ1, α1β2γ3, α2β1γ1, α2β2γ1 and α2β2γ3 were cloned; 6X-His (N); AviTag (BAP); made in house; host or cells: E. coli (co-expressed with BirA)
T7 sequence (Q13131 whole entry): as the sequence (Q13131 whole entry) above
T7 sequence (Q9Y478 whole entry): as the sequence (Q9Y478 whole entry) above
T7 sequence (P54619 whole entry): as the sequence (P54619 whole entry) above
Kind of test: SPR direct binding (Biacore). Here is the method: (§5) SPR experiments were performed on a Biacore™ 3000 instrument (GE Healthcare). BAP-tagged AMPK isoform (α1β1γ1, α1β2γ1, α2β2γ1, α2β2γ3) was captured on to a streptavidin sensor chip to levels ranging from 4000 to 6000 RU. […] Binding responses were processed using Scrubber 2 (BioLogic Software Pty Ltd) to zero, x-align, double reference and corrected for excluded volume effect of DMSO in the data. […] The compound was injected at a flow rate of 50 μl/min with total contact time of 120 s and dissociation time of 600 s. Rate parameters (kon, koff) and corresponding dissociation constant(KD=koff/kon) were determined by globally fitting all of the experimental data to a simple 1:1 interaction model using Biaeval software (GE Healthcare). To determine nt binding, 10 concentrations with 2-fold dilutions were tested in duplicate. The highest concentration tested was 2 mM. The compound was injected at a flow rate of 50 μl/min with total contact time of 120 s and dissociation time of 300 s. Equilibrium dissociation constant (KD) was determined using a steady-state affinity algorithm available within Scrubber.
(§6) We then compared the binding of nts (AMP, ADP and ATP) to α1β1γ1, α1β2γ1, α2β2γ1 and α2β2γ3 isoforms in the presence and absence of Mg^2+ and Stau, using SPR technique. […]
In general terms: In SPR one partner is held on a chip, and binding of the other changes the refractive index at the surface.

Test [8] addresses T8, BAP-tagged AMPK α2β2γ1 (Homo sapiens, UniProt O43741+P54619+P54646).
T8 construct: Recombinant full-length AMPK heterotrimeric complexes α1β1γ1, α1β2γ1, α1β2γ3, α2β1γ1, α2β2γ1 and α2β2γ3 were cloned into a tricistronic vector system; 6X-His (N); made in house; host or cells: E. coli BL21-CodonPlus (DE3)-RIPL, co-expressed with BirA
Kind of test: SPR direct binding (Biacore). How it is done:
as §5, §6

The target of test [9] is T9, BAP-tagged AMPK α1β2γ1 (Homo sapiens, UniProt O43741+P54619+Q13131).
T9 construct: Recombinant full-length AMPK heterotrimeric complexes α1β1γ1, α1β2γ1, α1β2γ3, α2β1γ1, α2β2γ1 and α2β2γ3 were cloned into a tricistronic vector system; 6X-His (N); made in house; host or cells: E. coli BL21-CodonPlus (DE3)-RIPL, co-expressed with BirA
T9 sequence (Q13131 whole entry): as the sequence (Q13131 whole entry) above
T9 sequence (O43741 whole entry): as the sequence (O43741 whole entry) above
T9 sequence (P54619 whole entry): as the sequence (P54619 whole entry) above
Kind of test: SPR direct binding (Biacore). Here is the method: as §5
(§7) We then compared the binding of nts (AMP, ADP and ATP) to α1β1γ1, α1β2γ1, α2β2γ1 and α2β2γ3 isoforms in the presence and absence of Mg^2+ and Stau, using SPR technique.

Test [10] concerns the target T10, BAP-tagged AMPK α2β2γ3 (Homo sapiens, UniProt O43741+P54646+Q9UGI9).
T10 construct: Recombinant full-length AMPK heterotrimeric complexes α1β1γ1, α1β2γ1, α1β2γ3, α2β1γ1, α2β2γ1 and α2β2γ3 were cloned into a tricistronic vector system; 6X-His (N); made in house; host or cells: E. coli BL21-CodonPlus (DE3)-RIPL, co-expressed with BirA
Kind of test: SPR direct binding (Biacore). Here is the method:
as §5, §7

The target in test [11] is T11, AMPK α1β1γ1 (Homo sapiens, UniProt P54619+Q13131+Q9Y478).
T11 construct: Recombinant full-length AMPK heterotrimeric complexes α1β1γ1, α1β2γ1, α1β2γ3, α2β1γ1, α2β2γ1 and α2β2γ3 were cloned; 6X-His (N); made in house; host or cells: E. coli BL21-CodonPlus (DE3)-RIPL
T11 sequence (Q13131 whole entry): as the sequence (Q13131 whole entry) above
T11 sequence (Q9Y478 whole entry): as the sequence (Q9Y478 whole entry) above
T11 sequence (P54619 whole entry): as the sequence (P54619 whole entry) above
Kind of test: Steady-state kinetics, radiometric SAMS assay. It is filed as biochemical. The following applies: absence of AMP, SAMS fixed at ~10-fold Km, read-out: Km ATP. Here is the method: (§8) The kinase activity of pAMPK was measured via AMPK-mediated incorporation of ^33phosphate from [^33P]ATP into the synthetic peptide called SAMS [31] using the radiometric assay as described before. […] Assay linearity was ensured by determining that <30% substrate was depleted for all concentrations tested. The Km values were obtained in the absence of AMP in the reaction. Data were fitted by non-linear regression to the Michaelis–Menten equation using GraphPad prism to obtain the kinetic parameters. The specific radioactivity of each isoform was determined at saturating concentrations of each substrate.

In test [12] the target is T12, AMPK α1β2γ1 (Homo sapiens, UniProt O43741+P54619+Q13131).
T12 construct: Recombinant full-length AMPK heterotrimeric complexes α1β1γ1, α1β2γ1, α1β2γ3, α2β1γ1, α2β2γ1 and α2β2γ3 were cloned; 6X-His (N); made in house; host or cells: E. coli BL21-CodonPlus (DE3)-RIPL
T12 sequence (Q13131 whole entry): as the sequence (Q13131 whole entry) above
T12 sequence (O43741 whole entry): as the sequence (O43741 whole entry) above
T12 sequence (P54619 whole entry): as the sequence (P54619 whole entry) above
Description: Steady-state kinetics, radiometric SAMS assay. The format is biochemical. The following applies: absence of AMP, SAMS fixed at ~10-fold Km, read-out: Km ATP. Here is the method: as §8

Test [13] has as its target T2, AMPK α1β2γ3. Description: Steady-state kinetics, radiometric SAMS assay. It is filed as biochemical. The following applies: absence of AMP, SAMS fixed at ~10-fold Km, read-out: Km ATP. How it is done:
as §8

The target of test [14] is T4, AMPK α2β1γ1. Kind of test: Steady-state kinetics, radiometric SAMS assay. It is filed as biochemical. The following applies: absence of AMP, SAMS fixed at ~10-fold Km, read-out: Km ATP. Here is the method: as §8
For test [15], the target named is T5, AMPK α2β2γ1. Kind of test: Steady-state kinetics, radiometric SAMS assay. The format is biochemical. The following applies: absence of AMP, SAMS fixed at ~10-fold Km, read-out: Km ATP. How it is done: as §8
The target in test [16] is T6, AMPK α2β2γ3. Description: Steady-state kinetics, radiometric SAMS assay. The following applies: absence of AMP, SAMS fixed at ~10-fold Km, read-out: Km ATP. The format is biochemical. How it is done:
as §8

The target in test [17] is full-length, pAMPK. The arrangement: method as in PMID 21399626. The following applies: presence of Mg2+, cited from earlier work.
[18] abbreviates: presence of Mg2+ and 25 nM Stau, cell spans KD1 and KD2, read-out: KD (single measurable binding affinity).
Where [19] appears, read: presence of Mg2+, cell spans KD1 and KD2, read-out: KD (single measurable binding affinity).
Setting [20] is: tighter site, absence of Mg2+ and Stau, read-out: KD1.
[21] abbreviates: weaker site, absence of Mg2+ and Stau, read-out: KD2.

Read-outs that look alike come from different tables or passages of the source.

T8 sequence (P54646 whole entry): as the sequence (P54646 whole entry) above
T8 sequence (O43741 whole entry): as the sequence (O43741 whole entry) above
T8 sequence (P54619 whole entry): as the sequence (P54619 whole entry) above
T10 sequence (P54646 whole entry): as the sequence (P54646 whole entry) above
T10 sequence (O43741 whole entry): as the sequence (O43741 whole entry) above
T10 sequence (Q9UGI9 whole entry): as the sequence (Q9UGI9 whole entry) above
T1 sequence (Q13131 18-293): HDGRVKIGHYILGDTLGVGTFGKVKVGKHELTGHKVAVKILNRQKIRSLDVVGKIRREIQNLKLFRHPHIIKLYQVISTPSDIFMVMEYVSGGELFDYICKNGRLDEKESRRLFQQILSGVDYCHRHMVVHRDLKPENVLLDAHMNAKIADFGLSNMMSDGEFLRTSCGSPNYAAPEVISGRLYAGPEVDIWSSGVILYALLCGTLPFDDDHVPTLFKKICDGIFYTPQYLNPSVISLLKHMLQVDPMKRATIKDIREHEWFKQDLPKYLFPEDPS
T3 sequence (P54646 7-282): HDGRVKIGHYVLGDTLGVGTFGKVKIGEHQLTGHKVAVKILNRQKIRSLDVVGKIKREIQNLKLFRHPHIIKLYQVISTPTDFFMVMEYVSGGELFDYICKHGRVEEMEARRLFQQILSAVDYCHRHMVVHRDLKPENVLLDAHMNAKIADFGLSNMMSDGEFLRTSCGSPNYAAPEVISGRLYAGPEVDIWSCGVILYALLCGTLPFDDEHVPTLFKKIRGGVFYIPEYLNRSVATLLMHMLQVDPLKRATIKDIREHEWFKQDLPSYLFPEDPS

As to “PP2Aα: Human recombinant protein phosphatase 2Aα catalytic subunit expressed in insect cells”, the EC50 in test [1] is 0.0032 µM; in test [2] it was 0.441 µM; in test [3], 0.0013 µM; in [4], 0.04 µM; in test [5], 0.057 µM; in test [6] it was 0.041 µM.
Take `Nc1ncnc2c1ncn2[C@@H]1O[C@H](COP(=O)(O)OP(=O)(O)OP(=O)(O)O)[C@@H](O)[C@H]1O` [ATP]: the Kd in test [7] (setting [18]) amounted to 300 ± 10 µM; in test [7] (setting [19]) it was 130 ± 1 µM; in test [7] (setting [20]), 1.35 ± 0.02 µM; in test [7] (setting [21]), 2260 ± 90 µM; in test [8] (setting [18]), 133 ± 4 µM; in [8] (setting [19]), 95 ± 1 µM. Also, the Kd in [8] (setting [20]) was found to be 0.92 ± 0.03 µM; in test [8] (setting [21]), 2900 ± 200 µM; in test [9] (setting [18]), 400 ± 20 µM; in [9] (setting [19]), 95 ± 1 µM; in [9] (setting [20]) it was 1.1 ± 0.04 µM; in test [9] (setting [21]) it was 3400 ± 300 µM. Besides, the Kd in [10] (setting [18]) was 540 ± 20 µM; in test [10] (setting [19]) it was 277 ± 4 µM; in test [10] (setting [20]), 7.6 ± 0.6 µM; in [10] (setting [21]), 3500 ± 300 µM; in [17] (read-out: equilibrium dissociation constant, stronger binding site), 18 µM; in test [17] (read-out: equilibrium dissociation constant, weaker binding site), 230 µM. The Km – broadly, the substrate concentration at which the rate is half of its maximum – in test [11] worked out at 26 ± 5.6 µM; in test [12], 45.1 ± 5.8 µM; in test [13] it was 333 ± 65 µM; in test [14] it was 31.4 ± 9.3 µM; in test [15], 48 ± 5 µM; in test [16], 417 ± 39 µM.

(Values after article PMC4764975, “Probing the enzyme kinetics, allosteric modulation and activation of α1- and α2-subunit-containing AMP-activated protein kinase (AMPK) heterotrimeric complexes by pharmacological and physiological activators” (Biochemical Journal, 2016).)
